Key:
[1] = target: human dopamine receptor type 2, long variant (hD2L) (Homo sapiens (Human), UniProt P14416); test: [3H]-Spiperone binding assay at hD2 recombinant receptor (CHO-Gα16-hD2L membranes)
Procedure: [^3H]-Spiperone Binding Assay at hD2 Recombinant Receptor CHO cells stably expressing human dopamine receptor type 2, long variant (hD2L), coupled to Gα16 protein (CHO-Gα16-hD2L) were re-suspended in 20 mM HEPES, 2 mM EDTA (pH 7.4), homogenised and centrifuged at 40,000 g (20 min, 4° C.). After re-suspension, homogenization and centrifugation as above, the final pellet was re-suspended in 20 mM HEPES, 100 mM NaCl, 10 mM MgCl2, 1 mM EDTA (pH 7.4) and aliquots were kept at −80° C. [^3H]-Spiperone Binding experiments were performed in 96 deep-well polypropylene plates in 50 mM Tris/HCl, 120 mM NaCl, 5 mM KCl, 5 mM MgCl2 (pH 7.4). […] Displacement was performed in the presence of 0.08 nM [^3H]-Spiperone. The reaction was initiated by the addition of membrane suspension (2 μg of protein for CHO-hD2 membranes) and lasted for 120 min at 23° C. in a final volume of 1000 μl. Non specific binding (NSB) was determined in the presence of 0.1 μM Spiperone. The binding reaction was stopped by rapid filtration through GF/B filterplates pre-soaked in 0.5% polyetylenimmine (PEI) using a Packard cell harvester. After washing with ice-cold 0.9% NaCl, the plate was left to dry before the addition of Microscint 20 (50 μl/well, PerkinElmer). Radioactivity was counted with a TopCount (PerkinElmer). […] Saturation binding experiments were performed similar to the competition binding experiments using a radioligand concentrations ranging from 0.011 to 3.0 nM. […] Is Clozapine selective for the dopamine D4 receptor? […] Real-time analysis of dopamine: antagonist interactions at recombinant human D2long receptor upon modulation of its activation state. Brit. J.

[2] = target: human dopamine type 3 receptor (hD3) (Homo sapiens (Human), UniProt P35462); test: [3H]-Spiperone binding assay at hD3 recombinant receptor (CHO-hD3 membranes); details: pKi only estimated to be accurate to about ±0.3-0.5
Chain of human dopamine type 3 receptor (hD3) (P35462 whole entry): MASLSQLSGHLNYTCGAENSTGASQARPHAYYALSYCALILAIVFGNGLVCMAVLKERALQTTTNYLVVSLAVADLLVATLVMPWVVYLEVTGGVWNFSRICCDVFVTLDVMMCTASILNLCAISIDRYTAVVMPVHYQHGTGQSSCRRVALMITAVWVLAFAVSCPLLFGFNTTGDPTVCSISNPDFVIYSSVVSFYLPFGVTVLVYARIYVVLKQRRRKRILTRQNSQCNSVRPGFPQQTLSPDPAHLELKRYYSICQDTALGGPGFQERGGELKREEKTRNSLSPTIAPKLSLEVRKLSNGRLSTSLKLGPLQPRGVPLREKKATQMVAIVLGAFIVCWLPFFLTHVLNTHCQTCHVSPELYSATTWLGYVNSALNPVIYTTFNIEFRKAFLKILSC
Procedure: [^3H]-Spiperone Binding Assay at hD3 and hD4 recombinant receptors CHO cells transiently transfected with human dopamine type 3 or 4 receptors (CHO-hD3 or CHO-hD4, respectively), were re-suspended in 20 mM HEPES, 2 mM EDTA (pH 7.4), homogenised and centrifuged at 40,000 g (20 min, 4° C.). After re-suspension, homogenization and centrifugation as above, the final pellet was re-suspended in 20 mM HEPES, 100 mM NaCl, 10 mM MgCl2, 1 mM EDTA (pH 7.4) and aliquots were kept at −80° C. [^3H]-Spiperone Binding experiments were performed in 96 deep-well polypropylene plates in 50 mM Tris/HCl, 120 mM NaCl, 5 mM KCl, 5 mM MgCl2 (pH 7.4). Compounds of invention were serially diluted in DMSO at 100 fold final concentrations in the assay (1% DMSO final in the assay). Displacement was performed in the presence of 0.3 nM [^3H]-Spiperone. The reaction was initiated by the addition of membrane suspension (4 μg and 12 μg of protein for CHO-hD3- and CHO-hD4 membranes, respectively) and lasted for 90 or 100 min (for hD3 or hD4 membranes, respectively) at 23° C. in a final volume of 500 μl. Non specific binding (NSB) was determined in the presence of 1 μM Spiperone. The binding reaction was stopped by rapid filtration through GF/B filterplates pre-soaked in 0.5% polyetylenimmine (PEI) using a Packard cell harvester. After washing with ice-cold 0.9% NaCl, the plate was left to dry before the addition of Microscint 20 ([…], PerkinElmer). Radioactivity was counted with a TopCount (PerkinElmer). Data were analysed by non-linear regression analysis using GraphPad Prism 5.0 (GraphPad Software). Saturation binding experiments were performed similar to the competition binding experiments using a radioligand concentrations ranging from 0.015 to 4.0 nM. […] Characterization of the human dopamine D3 receptor expressed in transfected cell lines.

D2 p Ki [1] | D3 p Ki [2] | SMILES
<5 | 7.63 | Cc1nc(-c2ccc(-c3nnc(SCCCN4CCOC(c5ccc(C(F)(F)F)cc5)C4)n3C)cc2)no1 (centres unmarked) [Example 30, 4-[3-({4-methyl-5-[4-(5-methyl-1,2,4-oxadiazol-3-yl)phenyl]-4H-1,2,4-triazol-3-yl}sulfanyl)propyl]-2-[4-(trifluoromethyl)phenyl]morpholine]
4.79 | 7 | Cn1c(SCCCN2CCOC(c3ccc(C(F)(F)F)cc3)C2)nnc1-c1ccc(C(N)=O)cn1 (centres unmarked) [Example 22, 6-{4-methyl-5-[(3-{2-[4-(trifluoromethyl)phenyl]morpholin-4-yl}propyl)sulfanyl]-4H-1,2,4-triazol-3-yl}pyridine-3-carboxamide]
4.65 | 7.18 | CC(=O)c1ccc(-c2nnc(SCCCN3CCOC(c4ccc(C(F)(F)F)cc4)C3)n2C)cc1 (centres unmarked) [Example 32, 1-(4-{4-methyl-5-[(3-{2-[4-(trifluoromethyl)phenyl]morpholine-4-yl}propyl)sulfanyl]-4H-1,2,4-triazol-3-yl}phenyl)ethan-1-one]
5.05 | 7.36 | Cn1c(SCCCN2CCOC(c3ccc(C(F)(F)F)cc3)C2)nnc1C1CCCCC1 (centres unmarked) [Example 25, 4-{3-[(5-cyclohexyl-4-methyl-4H-1,2,4-triazol-3-yl)sulfanyl]propyl}-2-[4-(trifluoromethyl)phenyl]morpholine]
5.28 | 8.23 | Cn1c(SCCCN2CCOC(c3ccc(C(F)(F)F)cc3)C2)nnc1-c1ccc(-c2ncco2)cc1 (single isomer, unassigned) [Example 16, (2R or 2S)-4-[3-({4-methyl-5-[4-(1,3-oxazol-2-yl)phenyl]-4H-1,2,4-triazol-3-yl}sulfanyl)propyl]-2-[4-(trifluoromethyl)phenyl]morpholine]
<5 | 6.16 | Cn1nccc1-c1nnc(SCCCN2CCOC(c3ccc(C(F)(F)F)cc3)C2)n1C (centres unmarked) [Example 27, 4-(3-{[4-methyl-5-(1-methyl-1H-pyrazol-5-yl)-4H-1,2,4-triazol-3-yl]sulfanyl}propyl)-2-[4-(trifluoromethyl)phenyl]morpholine]
 | 6.17 | Cc1ccc(C2CN(CCCSc3nnc(-c4ocnc4C)n3C)CCO2)cc1 (centres unmarked) [Example 36, 4-(3-{[4-methyl-5-(4-methyl-1,3-oxazol-5-yl)-4H-1,2,4-triazol-3-yl]sulfanyl}propyl)-2-(4-methylphenyl)morpholine]
4.96 | 7.46 | Cn1c(SCCCN2CCOC(c3ccc(C(F)(F)F)cc3)C2)nnc1-c1ccc(C(N)=O)cc1 (centres unmarked) [Example 11, 4-{4-methyl-5-[(3-{2-[4-(trifluoromethyl)phenyl]-morpholin-4-yl}propyl)sulfanyl]-4H-1,2,4-triazol-3-yl}benzamide]
5.18 | 6.9 | Cn1cccc1-c1nnc(SCCCN2CCOC(c3ccc(C(F)(F)F)cc3)C2)n1C (centres unmarked) [Example 24]
4.81 | 6.36 | Cn1c(SCCCN2CCOC(c3ccc(C(F)(F)F)cc3)C2)nnc1-c1ccc(-c2ncco2)cc1 (single isomer, unassigned) [Example 15, (2S or 2R)-4-[3-({4-methyl-5-[4-(1,3-oxazol-2-yl)phenyl]-4H-1,2,4-triazol-3-yl}sulfanyl)propyl]-2-[4-(trifluoromethyl)phenyl]morpholine]
5.04 | 6.9 | Cn1c(SCCCN2CCOC(c3ccc(C(F)(F)F)cc3)C2)nnc1-c1ccc(-n2cnnc2)cc1 (centres unmarked) [Example 21, 4-[3-({4-methyl-5-[4-(4H-1,2,4-triazol-4-yl)phenyl]-4H-1,2,4-triazol-3-yl}sulfanyl)propyl]-2-[4-(trifluoromethyl)phenyl]morpholine]
4.83 | 6.77 | Cn1c(SCCCN2CCOC(c3ccc(C(F)(F)F)cc3)C2)nnc1-c1cccnc1 (centres unmarked) [Example 18, 4-(3-{[4-methyl-5-(pyridin-3-yl)-4H-1,2,4-triazol-3-yl]sulfanyl}propyl)-2-[4-(trifluoromethyl)phenyl]morpholine]
 | 6.72 | Cc1ncoc1-c1nnc(SCCCN2CCOC(c3ccc(Br)cc3)C2)n1C (centres unmarked) [Example 38, 2-(4-bromophenyl)-4-(3-{[4-methyl-5-(4-methyl-1,3-oxazol-5-yl)-4H-1,2,4-triazol-3-yl]sulfanyl}propyl)morpholine]
4.86 | 7.94 | Cn1c(SCCCN2CCOC(c3ccc(C(F)(F)F)cc3)C2)nnc1-c1ccc(C(N)=O)cc1 (single isomer, unassigned) [Example 13, 4-[4-methyl-5-({3-[(2R or 2S)-2-[4-(trifluoromethyl)phenyl]morpholin-4-yl]propyl}sulfanyl)-4H-1,2,4-triazol-3-yl]benzamide]
<4.5 | 6.87 | Cn1c(SCCCN2CCOC(c3ccc(C(F)(F)F)cc3)C2)nnc1-c1ccc(S(N)(=O)=O)cc1 (centres unmarked) [Example 33, 4-{4-methyl-5-[(3-{2-[4-(trifluoromethyl)phenyl]morpholine-4-yl}propyl)sulfanyl]-4H-1,2,4-triazol-3-yl}benzene-1-sulfonamide]
4.95 | 6.97 | Cn1c(SCCCN2CCOC(c3ccc(C(F)(F)F)cc3)C2)nnc1-c1ccc(C#N)cc1 (centres unmarked) [Example 31, 4-{4-methyl-5-[(3-{2-[4-(trifluoromethyl)phenyl]morpholin-4-yl}propyl)sulfanyl]-4H-1,2,4-triazol-3-yl}benzonitrile]
4.96 | 6.71 | Cc1ncoc1-c1nnc(SCCCN2CCOC(c3ccc(C(F)(F)F)cc3F)C2)n1C (centres unmarked) [Example 34]
4.91 | 7.79 | Cn1c(SCCCN2CCOC(c3ccc(C(F)(F)F)cc3)C2)nnc1-c1ccc(-c2nnco2)cc1 (centres unmarked) [Example 29, 4-[3-({4-methyl-5-[4-(1,3,4-oxadiazol-2-yl)phenyl]-4H-1,2,4-triazol-3-yl}sulfanyl)propyl]-2-[4-(trifluoromethyl)phenyl]morpholine]
5.06 | 6.95 | Cn1c(SCCCN2CCOC(c3ccc(C(F)(F)F)cc3)C2)nnc1-c1ccsc1 (centres unmarked) [Example 28]
 | 7.45 | Cn1c(SCCCN2CCOC(c3ccc(C(F)(F)F)cc3)C2)nnc1-c1ccc(C(N)=O)nc1 (centres unmarked) [Example 20, 5-{4-methyl-5-[(3-{2-[4-(trifluoromethyl)phenyl]morpholin-4-yl}propyl)sulfanyl]-4H-1,2,4-triazol-3-yl}pyridine-2-carboxamide]
 | 6.76 | Cn1c(SCCCN2CCOC(c3ccc(C(F)(F)F)cc3)C2)nnc1-c1cnccn1 (centres unmarked) [Example 19, 4-(3-{[4-methyl-5-(pyrazin-2-yl)-4H-1,2,4-triazol-3-yl]sulfanyl}propyl)-2-[4-(trifluoromethyl)phenyl]morpholine]
5.83 | 8.31 | Cn1c(SCCCN2CCOC(c3ccc(C(F)(F)F)cc3)C2)nnc1-c1ccc(-c2ncco2)cc1 (centres unmarked) [Example 14, 4-[3-({4-methyl-5-[4-(1,3-oxazol-2-yl)phenyl]-4H-1,2,4-triazol-3-yl}sulfanyl)propyl]-2-[4-(trifluoromethyl)phenyl]morpholine]
 | 7.06 | Cn1c(SCCCN2CCOC(c3ccc(C(F)(F)F)cc3F)C2)nnc1-c1ccc(C(N)=O)cc1 (centres unmarked) [Example 35]

Source: patent US10577361B2, “Dopamine D3 receptor antagonists having a morpholine moiety” (Indivior UK Limited, priority 2015, dated 2020)
